Measured values reported in US8729048B2, “Methods and materials for assessing responsiveness to PARP inhibitors and platinating agents” (Mayo Foundation for Medical Education and Research, priority 2011, dated 2014).
“Also recorded” adds a separate entry of the source.

How the values were obtained:
Assay type in all cases: cell-based
[1] = tested on: BRCA2-positive PEO4 cells; assay: Clonogenic assay, PEO4; conditions: 72 hours
Method: FIG. 5. NHEJ is a major contributor to PARP inhibitor effects in BRCA2-deficient cells. (A) Western blots showing knockdown of Ku80 in PEO1 and PEO4 cells. (B) Clonogenic survival of PEO1 and PEO4 cells from (A), which were treated with the indicated ABT-888 concentration for 72 hours, washed, and allowed to form colonies. (C) Western blots following treatment with siRNA targeting luciferase (control), Ku80, PARP1, or both Ku80 and PARP1. (D) Clonogenic viability of PEO 1 and PEO4 cells from (C). Following knockdown, cells were plated onto triplicate plates and allowed to form colonies. (E) Clonogenic survival of PEO1 cells following Artemis knockdown. After treatment with the indicated siRNA, plates were treated with indicated concentration of ABT-888 for 72 hours, washed, and allowed to form colonies. Inset, Western blots showing knockdown using luciferase (control) or Artemis siRNAs in PEO1 cells. (F) Clonogenic survival of PEO1 and PEO4 cells treated for 72 hours with ABT-888 in combination with diluent or 500 nM DNA-PKi. All results are reported as means of triplicate plates±SEM, and are representative of 3 independent experiments.
Colony formation assays were performed on siRNA-transfected PEO1 and PEO4 cells 48 hours after the second transfection. Cells were trypsinized and plated at 750 cells/plate in triplicate 60-mm dishes containing medium A, allowed to grow 10-14 days, and stained with Coomassie Brilliant Blue. Colonies containing ≧50 cells were scored manually. To assess methyl methanesulfonate (MMS) sensitivity, PEO1 or PEO4 cells were incubated for 48 hours after the second siRNA treatment, plated onto 60-mm dishes, allowed to adhere for 4 hours, exposed to the indicated concentration of MMS (Sigma-Aldrich) for 1 hour, washed with sterile RPMI 1640, and allowed to grow into colonies in medium A. For drug treatment, cells (without siRNA) were allowed to adhere for 4-6 hours, then treated with the indicated concentrations of ABT-888 and/or AZ12594248 for 72 hours. […]

[2] = tested on: NHEJ activity in PEO4 cells; assay: NHEJ end-joining reporter assay, PEO4; conditions: 72 hours
Source text: FIG. 3. Error-prone NHEJ activity is enhanced by PARP inhibitors in PEO1 cells. (A) Schematic of the in vivo NHEJ assay. Pem1-Ad2-EGFP is an EGFP-containing vector with a 2.4 kb intron (Pem1) and one exon (Ad2) inserted into the EGFP cassette. Pem1-Ad2-EGFP was cut with either HindIII or I-SceI to produce linearized substrate with compatible overhangs or incompatible inverted overhangs, respectively. Successfully recircularized plasmid will produce intact EGFP, which can be assayed via flow cytometry. Any residual uncut plasmid, due to the insertion of the Ad2 exon within the EGFP open reading frame, will be EGFP negative. A pCherry plasmid was co-transfected with substrate to correct for transfection efficiency. (B) and (C) Quantitation of NHEJ activity in PEO1 and PEO4 cells transfected with HindIII substrate (B) or I-SceI substrate (C) and exposed to ABT-888 for 72 hours. Each data point represents the mean±SEM from 3 independent experiments.
The end-joining reporter plasmid pEGFP-Pem1-Ad2 described elsewhere (Wang et al., Nucleic Acids Res., 34:6170-6182 (2006); Seluanov et al., Proc. Natl. Acad. Sci. USA, 101:7624-7629 (2004); and Fattah et al., PLoS Genet., 6:e1000855 (2010); see also (FIG. 3A)) was provided by E. Hendrickson (University of Minnesota, Minneapolis, Minn.) and was digested with either HindIII or I-SceI for 12 hours, and gel purified using a Qiagen gel extraction kit. […]

[3] = tested on: parental M059J cells lacking DNA-PKcs; assay: Clonogenic assay, M059J; conditions: BRCA1 shRNA
Method: FIG. 6. […] (A) BRCA1-deficient HCC1937 and BRCA1-reconstituted HCC1937/BRCA1 cells were continuously exposed to ABT-888 in the presence or absence of 125 nM DNA-PKi and assayed for clonogenic survival. Inset, Western blots of cell lysates from HCC1937 and HCC1937/BRCA1. (B) Western blots of M059J and reconstituted M059J+DNA-PKcs lines showing the restoration of DNA-PK expression and the shRNA-mediated knockdown of BRCA1. (C) Clonogenic survival of shRNA transfected M059J/M059J+DNA-PKcs lines treated with ABT-888 for 72 hours. (D) Clonogenic survival of ATM-deficient GM16666 or ATM-reconstituted GM16667 fibroblasts. Cells were exposed to ABT-888 for 48 hours in the presence or absence of 250 nM DNA-PKi, washed, and allowed to form colonies. Inset, Western blots of lysates from GM16666 and GM16667 fibroblasts. […] Results are representative of 3 independent experiments.
All siRNA oligonucleotides were purchased from Ambion, Inc. (Austin, Tex.). Sequences, with references, are provided below. PEO1 and PEO4 cells were transfected with 150 picomoles of siRNA using the HiPerfect lipid transfection reagent (Qiagen; Valencia, Calif.). […]
Colony formation assays were performed on siRNA-transfected PEO1 and PEO4 cells 48 hours after the second transfection. […] Colonies containing ≧50 cells were scored manually. […]

C[C@]1(c2nc3c(C(N)=O)cccc3[nH]2)CCCN1 [ABT-888]
clonogenic survival [1]: resistant to the effects of ABT-888
clonogenic survival with ABT-888 after Ku80 knockdown ([1]; Ku80 siRNA): unaffected by Ku80 siRNA
end-joining of HindIII-linearized substrate [2]: little effect; also recorded: small increase in end-joining
clonogenic sensitivity to ABT-888 after BRCA1 knockdown [3]: not sensitized
